Source: ChEMBL document CHEMBL3045371, “Structure-Activity Relationships of the Azole Fungicide Metconazole and Its Related Azolylmethylcycloalkanols” (1999)
Values after ≈ are worked out from the molar mass of the structure shown.

System: Fusarium fujikuroi
Assay: Fungicidal activity against Fusarium fujikuroi assessed as inhibition of mycelial growth incubated for 3 days at 28 degC
Format: functional
Settings: 72 h

| SMILES | EC90 [µg/mL] |
| --- | --- |
| CC1(C)CCCC[C@@H](Cc2ccc(Cl)cc2)[C@@]1(O)Cn1cncn1 | 4 (≈ 11.5 µM) |
| O[C@]1(Cn2cncn2)CCC[C@@H]1Cc1ccc(Cl)cc1 (relative stereo) | 2.1 (≈ 7.2 µM) |
| CC1(C)CCC[C@@H](Cc2ccc(Cl)cc2)[C@@]1(O)Cn1cncn1 (relative stereo) | 4.4 (≈ 13.2 µM) |
| O[C@]1(Cn2cncn2)CCCC[C@@H]1Cc1ccc(Cl)cc1 (relative stereo) | > 400 |
| O[C@]1(Cn2cncn2)CCCCC[C@H]1Cc1ccc(Cl)cc1 (relative stereo) | > 400 |
| O[C@]1(Cn2cncn2)CCCCC[C@@H]1Cc1ccc(Cl)cc1 (relative stereo) | 2.2 (≈ 6.88 µM) |
| CC1(C)CCC[C@H](Cc2ccc(Cl)cc2)[C@@]1(O)Cn1cncn1 (relative stereo) | 15 (≈ 44.9 µM) |
| O[C@]1(Cn2cncn2)CCCC[C@H]1Cc1ccc(Cl)cc1 (relative stereo) | 64.3 (≈ 210 µM) |
| CC1(C)CCCC[C@H](Cc2ccc(Cl)cc2)[C@@]1(O)Cn1cncn1 (relative stereo) | 1.3 (≈ 3.74 µM) |
| CC1(C)CC[C@H](Cc2ccc(Cl)cc2)[C@@]1(O)Cn1cncn1 (relative stereo) | 0.2 (≈ 0.625 µM) |
| CC1(C)CC[C@@H](Cc2ccc(Cl)cc2)[C@@]1(O)Cn1cncn1 | 2 (≈ 6.25 µM) |
| O[C@]1(Cn2cncn2)CCC[C@H]1Cc1ccc(Cl)cc1 (relative stereo) | 152 (≈ 521 µM) |
